The assay has as its target human chemokine receptor CCR3 (Homo sapiens (Human), UniProt P51677). Put plainly: CCR3 receptor binding assay (SPA, 125I-eotaxin-1). Conditions: human Eotaxin-1 at human CCR3-Rezeptor; membranes of hCCR3-C1 (transfected K562) cells. As to the method:
The CCR3 receptor binding test is based on a K562 cell line (leukemia myelogenic blast cells) transfected with the human chemokine receptor CCR3 (hCCR3-C1 cells). The cell membranes were prepared by disrupting the hCCR3-C1 cells by […]. The preparation was centrifuged at 400 g 4° C. for 30 min. The supernatant was transferred into fresh tubes followed by a second centrifugation at 48000 g, 4° C. for 1 h. The membranes were re-suspended in the SPA incubation buffer (25 mM HEPES, 25 mM MgCl2 6×H2O, 1 mM CaCl2 2×H2O) without bovine serum albumin and homogenized by passing through a single use needle (Terumo, 23Gx1″). The membranes were stored in aliquots at −80° C.
The CCR3 receptor binding assay was performed in a Scintillation Proximity Assay (SPA) design with the radioligand recombinant human ^125Iodine-eotaxin-1. Cell membranes of hCCR3 C1 cells were again homogenized by passing through a single use needle (Terumo, 23Gx1″) and diluted in SPA incubation buffer in suitable concentrations (0.5-10 μg protein/well) in 96 well microtiter plates (1450-514, Perkin Elmer). The SPA assay was set up in the SPA incubation buffer with a final volume of 200 μl and final concentration of 25 mM HEPES, 25 mM MgCl2 6×H2O, 1 mM CaCl2 2×H2O and 0.1% bovine serum albumin. The SPA assay mixture contained 60 μl of the membrane suspension, 80 μl of Wheat Germ Agglutinin coated PVT beads (organic scintillator, GE Healthcare, RPNQ-0001) 0.2 mg/well), 40 μl of recombinant human ^125Jodine-eotaxin-1 (Biotrend), diluted in SPA buffer to a final concentration of 30.000 dpm per well, and 20 μl of the test compound (dissolved in DMSO dilutions). The SPA assay mixture was incubated for 2 h at room temperature. Bound radioactivity was determined with a scintillation counter (Micro Beta “Trilux”, Wallac). Included were controls for total binding (no displacer added, Bo) and non-specific binding (NSB) by adding unlabelled recombinant human Eotaxin-1 (Biotrend, Cat #300-21) or a reference compound.
Determination of the affinity of a test compound was calculated by subtraction of the non-specific binding (NSB) from the total binding (Bo) or the binding in the presence of the test compound (B) at a given compound concentration. The NSB value was set to 100% inhibition. The Bo-NSB value was set to 0% inhibition.

human chemokine receptor CCR3, sequence (P51677 whole entry): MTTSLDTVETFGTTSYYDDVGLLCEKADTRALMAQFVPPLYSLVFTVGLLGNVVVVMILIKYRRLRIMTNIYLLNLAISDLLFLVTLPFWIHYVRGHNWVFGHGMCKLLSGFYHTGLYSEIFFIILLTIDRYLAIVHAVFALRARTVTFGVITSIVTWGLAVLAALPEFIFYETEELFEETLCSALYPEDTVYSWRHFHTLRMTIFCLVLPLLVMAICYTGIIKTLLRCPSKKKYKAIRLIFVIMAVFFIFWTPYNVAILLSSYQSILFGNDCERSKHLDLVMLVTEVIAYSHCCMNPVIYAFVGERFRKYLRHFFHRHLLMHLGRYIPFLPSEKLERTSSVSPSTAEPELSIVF

`CNC(=O)c1ccnc(NC(=O)[C@H]2CCC(=O)N2C2CCN(Cc3ccc(Cl)c(C)c3)CC2)c1` [Example 1] displayed a Ki of 23.4 nM.
For `Cc1cccc(NC(=O)[C@H]2CCC(=O)N2C2CCN(Cc3ccc(Cl)c(C)c3)CC2)n1` [Example 2], the inhibitory constant (Ki) is 69.6 nM.
Turning to `COc1ccnc(NC(=O)[C@H]2CCC(=O)N2C2CCN(Cc3ccc(Cl)c(C)c3)CC2)c1` [Example 3], the Ki was determined as 46.5 nM. This Ki and that of the molecule before are within 1.5-fold of each other.
`Cc1ccnc(NC(=O)[C@H]2CCC(=O)N2C2CCN(Cc3ccc(Cl)c(C)c3)CC2)c1` [Example 4] registered a Ki of 67.5 nM. This Ki and that of the molecule before are within 1.5-fold of each other.
`CCc1ccnc(NC(=O)[C@H]2CCC(=O)N2C2CCN(Cc3ccc(Cl)c(C)c3)CC2)c1` [Example 5] had a Ki of 197 nM.
For `CNC(=O)c1cccc(NC(=O)[C@H]2CCC(=O)N2C2CCN(Cc3ccc(Cl)c(C)c3)CC2)n1` [Example 6], affinity was put at a Ki of 72 nM.
Molecule `CNC(=O)c1cc(C)nc(NC(=O)[C@H]2CCC(=O)N2C2CCN(Cc3ccc(Cl)c(C)c3)CC2)c1` [Example 7] displayed a Ki of 10.4 nM.
On to `Cc1cc(CN2CCC(N3C(=O)CC[C@@H]3C(=O)Nc3cc(C(=O)N(C)C)ccn3)CC2)ccc1Cl` [Example 8], for which the affinity corresponds to a Ki of 8.5 nM.
`Cc1cc(C(=O)N2CCCC2)cc(NC(=O)[C@H]2CCC(=O)N2C2CCN(Cc3ccc(Cl)c(C)c3)CC2)n1` [Example 9] returned a Ki of 0.9 nM.
The molecule `Cc1cc(C(=O)N(C)C)cc(NC(=O)[C@H]2CCC(=O)N2C2CCN(Cc3ccc(Cl)c(C)c3)CC2)n1` [Example 11] yielded a Ki of 3.2 nM.
For the molecule `Cc1cc(CN2CCC(N3C(=O)CC[C@@H]3C(=O)Nc3cc(C(=O)N4CCCC4)ccn3)CC2)ccc1Cl` [Example 12], the Ki came to 4.7 nM.
The molecule `Cc1cc(CN2CCC(N3C(=O)CC[C@@H]3C(=O)Nc3cc(C(=O)N4CCOCC4)ccn3)CC2)ccc1Cl` [Example 13] had a Ki of 19.1 nM.
As for `Cc1cc(CN2CCC(N3C(=O)CC[C@@H]3C(=O)N(C)c3ccccn3)CC2)ccc1Cl` [Example 14], the Ki was determined as 1400 nM.
Then `Cc1cc(C(=O)NCC2CC2)cc(NC(=O)[C@H]2CCC(=O)N2C2CCN(Cc3ccc(Cl)c(C)c3)CC2)n1` [Example 15], with 3.5 nM; and `Cc1cc(C(=O)N2CCC2)cc(NC(=O)[C@H]2CCC(=O)N2C2CCN(Cc3ccc(Cl)c(C)c3)CC2)n1` [Example 16], with 6.8 nM; and `Cc1cc(C(=O)NCC(C)C)cc(NC(=O)[C@H]2CCC(=O)N2C2CCN(Cc3ccc(Cl)c(C)c3)CC2)n1` [Example 17], with 4.3 nM.
On to `Cc1cc(C(=O)NCC(F)F)cc(NC(=O)[C@H]2CCC(=O)N2C2CCN(Cc3ccc(Cl)c(C)c3)CC2)n1` [Example 18], for which the Ki amounted to 4.6 nM. The Ki values of the last two molecules are within 1.5-fold of each other.
In turn, `CCC(C)NC(=O)c1cc(C)nc(NC(=O)[C@H]2CCC(=O)N2C2CCN(Cc3ccc(Cl)c(C)c3)CC2)c1` (stereo partly shown) [Example 19] yielded a Ki of 4 nM. The Ki values of the last two molecules are within 1.5-fold of each other.
The molecule `CCC(C)N(C)C(=O)c1cc(C)nc(NC(=O)[C@H]2CCC(=O)N2C2CCN(Cc3ccc(Cl)c(C)c3)CC2)c1` (stereo partly shown) [Example 21] came in with a Ki of 5.2 nM.
Then `Cc1cc(C(=O)N(C)C(C)C)cc(NC(=O)[C@H]2CCC(=O)N2C2CCN(Cc3ccc(Cl)c(C)c3)CC2)n1` [Example 22], with 2.3 nM.
The molecule `Cc1cc(C(=O)NC2CCC2)cc(NC(=O)[C@H]2CCC(=O)N2C2CCN(Cc3ccc(Cl)c(C)c3)CC2)n1` [Example 23] came in with a Ki of 4.2 nM.
Consider `Cc1cc(C(=O)N(C)C)cc(NC(=O)[C@H]2CCC(=O)N2C2CCN(Cc3ccc(Br)c(C)c3)CC2)n1` [Example 24], for which the inhibition constant (Ki) worked out at 5.8 nM.
Take `CCc1cc(C(=O)N(C)C)cc(NC(=O)[C@H]2CCC(=O)N2C2CCN(Cc3ccc(Cl)c(C)c3)CC2)n1` [Example 25]: the affinity corresponds to a Ki of 8.3 nM.
`COc1cc(C(=O)N(C)C)cc(NC(=O)[C@H]2CCC(=O)N2C2CCN(Cc3ccc(Cl)c(C)c3)CC2)n1` [Example 26]: the Ki came to 232 nM.
With `CCCCc1cc(C(=O)N(C)C)cc(NC(=O)[C@H]2CCC(=O)N2C2CCN(Cc3ccc(Cl)c(C)c3)CC2)n1` [Example 27], the Ki turned out to be 414 nM.
Take `Cc1cc(C(=O)N(C)C)cc(NC(=O)[C@H]2CCC(=O)N2C2CCN(Cc3ccc(Cl)c(Cl)c3)CC2)n1` [Example 28]: the affinity, expressed as Ki, was 17.8 nM.
Molecule `Cc1cc(CN2CCC(N3C(=O)CC[C@@H]3C(=O)Nc3cc(C(=O)N(C)C)cc(C(C)C)n3)CC2)ccc1Cl` [Example 29] showed a Ki of 4.1 nM.
For `Cc1cc(C(=O)N(C)C)cc(NC(=O)[C@H]2CCC(=O)N2C2CCN(Cc3ccc(F)c(C)c3)CC2)n1` [Example 30], the affinity, expressed as Ki, was 70.3 nM. Against the preceding molecule, the Ki is about 17-fold higher.
Consider `Cc1cc(C(=O)N(C)C)cc(NC(=O)[C@H]2CCC(=O)N2C2CCN(Cc3ccc(Cl)c(C(F)(F)F)c3)CC2)n1` [Example 31], for which the Ki was 87.2 nM. This Ki and that of the molecule before are within 1.5-fold of each other.
`Cc1cc(CN2CCC(N3C(=O)CC[C@@H]3C(=O)Nc3cc(C(=O)N(C)C)cc(C4CC4)n3)CC2)ccc1Cl` [Example 32] came in with a Ki of 2.3 nM.
Regarding `CCc1cc(CN2CCC(N3C(=O)CC[C@@H]3C(=O)Nc3cc(C(=O)N(C)C)cc(C)n3)CC2)ccc1Cl` [Example 33], the Ki worked out at 7.9 nM.
With `C#Cc1cc(C(=O)N(C)C)cc(NC(=O)[C@H]2CCC(=O)N2C2CCN(Cc3ccc(Cl)c(C)c3)CC2)n1` [Example 34], the Ki came to 7.9 nM.
`Cc1cc(C(=O)N(C)C)cc(NC(=O)[C@H]2CCC(=O)N2C2CCN(Cc3cc(C)c(Cl)c(C)c3)CC2)n1` [Example 35] had a Ki of 61.3 nM.
Then `CCN(C)C(=O)c1cc(C)nc(NC(=O)[C@H]2CCC(=O)N2C2CCN(Cc3ccc(Cl)c(C)c3)CC2)c1` [Example 36], with 1.7 nM.

For orientation: Ki means a measure of affinity in units of concentration, obtained from inhibition or displacement. Read a low Ki as higher affinity.

For the origin of these results see patent publication US8742115B2, “Co-crystals and salts of CCR3-inhibitors” (Boehringer Ingelheim International GmbH, priority 2010, dated 2014).
